Results reported in patent US11717557B2, “Use of PRG4 as an anti-inflammatory agent” (Lubris LLC, priority 2015, dated 2023).

Experiments:
[1] = system: NFκB nuclear translocation in RA-FLS; experiment: NFκB nuclear translocation after TNF-α stimulation of RA-FLS; assay type: cell-based; conditions: TNF-α 5 ng/mL; rhPRG4 200 μg/mL or MG 132 3 μM; 24 hours; p<0.001
Protocol: RA-FLS (400,000 cells/well) were cultured and stimulated with TNF-α (5 ng/mL) and treated with rhPRG4 (200 μg/mL) or a commercially available NFκB translocation inhibitor MG 132 (3 μM; Tocris Bioscience) for 24 hours in serum free media. Cells were harvested and nuclear extraction was performed using a commercially available kit (Thermo scientific). Total protein was measured using a micro bicinchonic acid (BCA) kit (Thermo scientific) and 3 μg of nuclear extract of each experimental group were used. The p50 subunit of NFκB was detected in the nuclear extract using a commercially available NFκB DNA binding assay kit (Abcam). Data is presented as the number of fold change in NFκB nuclear levels compared to untreated control. To evaluate whether inhibition of NFκB translocation by rhPRG4 is CD44 dependent, the above experiment was repeated in the presence or absence of IM7 CD44 antibody (1:1,000 dilution). Data represents the average of 3 independent experiments with at least triplicate wells per treatment.

Prg4−/− synoviocytes = experiment: Cytokine-induced Prg4−/− synoviocyte proliferation; assay type: cell-based, mice; conditions: p<0.001
Protocol: rhPRG4 binding to CD44 and competition with high molecular weight hyaluronic acid (HMW HA) was evaluated using a direct enzyme linked immunosorbent assay (ELISA) and surface plasmon resonance. Sialidase-A and O-glycosidase digestion of rhPRG4 was performed and CD44 binding was evaluated using ELISA. Rheumatoid arthritis fibroblast-like synoviocytes (RA-FLS) were stimulated with interleukin-1 beta (IL-1β) or tumor necrosis factor alpha (TNF-α) for 48 hours in the presence or absence of rhPRG4 or HMW HA at 20, 40 and 80 μg/mL and cell proliferation was measured. CD44 contribution was assessed by co-incubation with an anti-CD44 antibody (IM7). The anti-proliferative effect of rhPRG4 was investigated following treatment of Prg4−/− synoviocytes with IL-1β or TNF-α in the presence or absence of IM7.
Synovial tissue was harvested from Prg4−/− and Prg4+/+ male mice (8-10 weeks old; 5-8 animals per genotype) and digested with pronase enzyme (2 mg/mL; Sigma Aldrich) in sterile HBSS buffer for 30 min at 37° C. with shaking. This was followed by digestion with type I collagenase (1 mg/mL; Sigma Aldrich) for 4 hours at 37° C. with shaking. The enzymatic reaction was stopped using DMEM+10% FBS. Cells were grown in DMEM+10% FBS and Prg4−/− synoviocytes were used between 2nd and 4th passages while Prg4+/+ synoviocytes were used in their second passage.

traumatic brain injury = experiment: Traumatic brain injury model, controlled cortical impact, Western blotting of cerebral cortex; assay type: in vivo, rats
Protocol: Approximately one hour after traumatic brain injury to rats, using an established brain injury model involving a controlled cortical impact, rhPRG4 was administered intravenously to test rats at an approximate dose of 2.5 mg/Kg. Normal saline (0.9% NaCl) was administered intravenously to control rats. One day later, brains were harvested and the samples of the cerebral cortex surrounding the post-traumatic lesion were analyzed using Western blotting.

[2] = approx. 2.5 mg/Kg intravenously, versus normal saline

With “rhPRG4: full-length recombinant human PRG4 (lubricin) glycoprotein produced by CHO-M cells (Lubris), Mr≅240 KDa” the “NFκB nuclear translocation compared to TNF-α-treated RA-FLS” value [1] was “significantly reduced”, the “IL-1β induced proliferation of Prg4−/− synoviocytes” value (Prg4−/− synoviocytes) was “significantly inhibited” and the “TNF-α induced proliferation of Prg4−/− synoviocytes” value (Prg4−/− synoviocytes) was “significantly inhibited”. The “down regulation of Galectin 3” value (traumatic brain injury; approx. 2.5 mg/Kg intravenously about one hour after injury, brains harvested one day later, versus normal saline) was 74%, the “attenuation of post-traumatic synthesis of matrix metalloproteinase 9” value (traumatic brain injury; [2]) was 94% and the “inhibition of the conversion of pro-matrix metalloproteinase 2 to its enzymatically active form” value (traumatic brain injury; [2]) was 64%. The “reduction in the magnitude of post-traumatic influx of monocytes into the injured brain parenchyma” value (traumatic brain injury; approx. 2.5 mg/Kg intravenously, versus normal saline-treated rats) was 60% and the “reduction of the permeability of the blood-brain barrier” value (traumatic brain injury; assessed by level of albumin in traumatized brain tissue, approx. 2.5 mg/Kg intravenously) was 80%.
